# Laboratory results as given in paper PMC12867150, “A fungi-derived cyclic peptide enhances Th9-mediated antitumor immunity by targeting ZAP70 and SREBP1” (The Journal of Clinical Investigation, 2025).
# “And” between values parts separate entries of the source, which are not always exact repeats. Identical values can stand only once.
# Tested on: Th9 cells
# Test: IL-9+ Th9 cells with MEK or ERK inhibition (Figure 5H)
# Assay type: cell-based, mouse
# Conditions: for IL-9 (flow cytometric quantification): Figure 5H, individual replicates, (n = 5)
# Experimental: (A) Identification and ranking of EpA-interacting proteins by affinity pulldown and LC-MS/MS, ordered by in silico binding energy predictions. […] (E) Flow-cytometric analysis of phosphorylated ZAP70 in Th9 cells 10 minutes after TCR activation (mean ± SEM, n = 3). (F) Pathway enrichment analysis of RNA-seq data showing MAPK/ERK-related pathways in EpA-treated Th9 cells. (G) Immunoblot analysis of total and phosphorylated MEK1/2 and ERK1/2 in control and EpA-treated Th9 cells. (H–L) Functional consequences of MEK or ERK inhibition in EpA-treated Th9 cells. […] Data in H–K are shown as mean ± SEM (n = 5) and in L as mean ± SEM (n = 3). Statistical significance was determined using 1-way ANOVA followed by Tukey’s test (E, H–L). *P < 0.05, **P < 0.01, ***P < 0.001, ****P < 0.0001.
# T cell polarization was initiated under plate-bound anti-CD3 (2 μg/mL, clone 17A2, BioXCell, catalog BE0002) and soluble anti-CD28 (1 μg/mL, clone 37.51, BioXCell, catalog BE0015-1) stimulation, with the addition of cytokines and neutralizing antibodies specific to each subset. For Th9 cells, these included IL-4 (10 ng/mL, Peprotech, catalog 400-04), TGF-β (1 ng/mL, EPOTO Biotech, catalog HF-2021), anti–IL-12 (5 μg/mL, clone C17.8, BioXCell, catalog BE0051), and anti–IFN-γ (10 μg/mL, clone XMG1.2, BioXCell, catalog BE0055); for Th1 cells, these included IL-12 (10 ng/mL, GenScript, catalog Z03211-50) and anti–IL-4 (5 μg/mL, clone 11B11, BioXCell, catalog BE0045); for Th2 cells, these included IL-4 (50 ng/mL), anti–IFN-γ (20 μg /mL), anti–IL-12 (5 μg/mL), Th17 cells: IL-6 (20 ng/mL, EPOTO Biotech, catalog MF-1006), TGF-β (1 ng/mL), IL-1β (10 ng/mL, Peprotech, catalog AF-211-11B), anti–IFN-γ (10 μg/mL), anti–IL-12 (5 μg/mL), and anti–IL-4 (5 μg/mL); and for Tregs, these included TGF-β (3 ng/mL). After 3 days of initial culture, cells were either collected for downstream assays or continued in extended culture with refreshed cytokines to maintain lineage commitment.
# The following pharmacological inhibitors were used at the indicated final concentrations: trametinib (MEK1/2 inhibitor; Selleck, catalog S4484) at 10 nM; temuterkib (ERK1/2 inhibitor; MCE, catalog HY-101494) at 100 nM; and fatostatin hydrobromide (SREBP inhibitor; MCE, catalog HY-14452A) at 5 μM. Dead cells were detected using Fixable Viability Dye eFluor 780 (eBioscience, catalog 65-0865).
substance,measurement,setting,value
anteiso-C15 Leu7 surfactin [EpA],IL-9 (flow cytometric quantification),EpA + ERKin combination,5.8 and 5.06 and 4.72 and 7.22 and 6.36
same,IL-9 (flow cytometric quantification),EpA + MEKin combination,0.49 and 3.03 and 0.46 and 0.71 and 0.77
same,IL-9 (flow cytometric quantification),single agent,50.6 and 51.1 and 72.2 and 66.2 and 42.3
same,IL-9 production,"trametinib 10 nM, temuterkib 100 nM, result in words",unable to restore it
